Data on 18 molecules can be found in patent publication US20240148745A1, “COMPOUNDS FOR USE IN PROGRESSIVE MULTIPLE SCLEROSIS” (FONDAZIONE CENTRO SAN RAFFAELE, priority 2021, published 2024).

Experiment [1] deals with rat oligodendrocyte progenitor CG4 line. The experiment in a line: Differentiation assay on rat oligodendrocyte progenitor CG4 line (HCS, mCherry+). It is filed as cell-based. The following applies: 1 μM; for CG4 differentiation compared with 9cis-RA positive control: secondary screen of 49 selected compounds, 5 days. The text has this:
Primary validation on CG4 line toxicity and differentiation. An innovative OPC line was developed for fast and reliable high content screening (HCS) of small compounds inducing oligodendrocyte differentiation. The line was genetically engineered by lentiviral transduction of rat CG4 cells (PubMed=1613821; DOI=10.1002/jnr.490310125; Louis J. C., Magal E., Muir D., Manthorpe M., Varon S.; CG-4, a new bipotential glial cell line from rat brain, is capable of differentiating in vitro into either mature oligodendrocytes or type-2 astrocytes. J. Neurosci. Res. 31:193-204(1992) to express mCherry fluorescent reporter (Evercooren, Anne & Avellana-Adalid, V. & Vitry, Sandrine & Nait-Oumesmar, Brahim & Lachapelle, Francois. (1997). Expansion of Oligodendrocyte Progenitors for Myelin Repair. 10.1007/978-1-4615-5949-8_21) in mature oligodendrocytes only, and EGFP at all stage of the oligodendroglial lineage: both the generation of mature oligodendrocytes (wmNl-mCherry) and the morphological changes associated with differentiation (CMV-EGFP) can be therefore monitored in a single assay. mCherry expression occurred only in O4+/GalC+ differentiated oligodendrocytes and GFP was ubiquitously expressed at all developmental stages. The line so obtained was validated using compounds with well-established effects on oligodendrocyte differentiation (cAMP and T3). Cell-based assay was standardized on the HCS platform (ArrayScanXTI, Brain and Spine Institute (Paris), validating the pro-differentiation effects of clemastine^27 and 9cis-retinoic acid.^28 For HCS validation of 274 compounds identified through in silico screen, double-fluo CG4 line cells were plated in 96 well-plates, 6500 cells/cm^2 and left for 24 h in proliferation. The other day, compounds were added (1 μM) for next 5 days of differentiation, with ⅔ medium changed after 3 days. 9-cis Retinoic Acid (9cis-RA; […]) served as a positive control, negative controls were basal (N1) medium and vehicle (basal+0.1% DMSO). Each compound was tested in triplicate and were imaged with ArrayScanXTI system (35 fields/well) after 5 days of differentiation.
FIG. 4 provides a schematic representation of High Content Screening (HCS) validation of the 274 compounds identified through in silico screening using CG4 line. […] In addition, the whole short list of 160 non-toxic compounds were screened using the CG4 high content phenotypic assay to further confirm the data from primary screening and to potentially select additional compounds with pro-myelinating activities. From this screening of the short list, 49 hit compounds were identified that increase differentiation either of CG4 cells or primary OPCs (FIG. 6).

The next experiment deals with rat primary OPC cultures. The experiment in a line: Differentiation of rat primary OPC into MBP+ OLs. It is filed as cell-based. The note with it: 96 h, 4 days of differentiation, read-out: MBP+ differentiation (MBP+/SOX10+ OLs plus compounds / plus basal medium). Here is the method:
Secondary validation on primary rat OPC differentiation. Re-validation of the best performing compounds promoting OPC differentiation (fold change >1.5) was performed on primary rat OPC cultures in 96 well-plate run in triplicates by triple immunolabeling for CNPase, MBP and SOX10 as a readout. Compounds at […] were added for 4 days of differentiation and then cell cultures were imaged with ArrayScanXTI platform, number of MBP+OLs were quantified by semi-automated software. Basal medium served as a negative control, 9 cis-RA ([…]) was a positive control.
Re-validation of the 49 compounds selected from the short list (160 compounds) using rat primary OPC cultures (compounds tested in triplicates in 3 independent experiments. The secondary validation screen of these compounds performed on rat primary OPC cultures selected 17 best lead compounds with a pro-differentiation activity (MBP+/SOX10+OLs plus compounds/MBP+SOX10+ plus basal medium fold increase) induced a strong differentiation into MBP+OLs (fold increase >1.6). Results are shown in FIG. 7.

Experiment [2] deals with murine cortical neurons (14 DIV). The experiment can be described thus: NMDA-mediated neuroprotective assay (CCK8 viability). It is filed as cell-based, mouse. The note with it: 1 μM, 3 h pre-treatment, NMDA 8 μM 24 h, p<0.05. The procedure:
To assess neuroprotective activity of 160 selected non-toxic compounds on primary murine cortical neurons, obtained as described in the previous paragraph, ([…]), cultures were pre-treated with 1 μM compounds for either 3 or 24 hours, followed by 24 hours chronic stimulation with NMDA (8 μM) to induce neuronal damage. Each test plate included: a negative control (untreated), vehicle-treated control (0.02% vol/vol DMSO), a positive neurotoxic control—staurosporine 0.1 μM, a stressor—NMDA 8 μM, a positive neuroprotective control—NAC 300 μM, and a combination of stressor +neuroprotective molecule (NMDA+NAC). Cell viability was measured with Cell Counting Kit-8 assay compared to NMDA-treated control.
The potential neuroprotective activity of 160 selected non-toxic compounds was evaluated on murine cortical neurons (14 DIV) with either 3 h (FIG. 13) or 24 h compounds pre-treatment (FIG. 14). In assay with 3 h pre-treatment, 17 compounds were identified as potential NMDA-neuroprotective hits (marked with black asterisk in FIG. 13, stat. significant at p<0.05, Kruskal-Wallis test with post-hoc two-stage linear step-up procedure of Benjamini, Krieger and Yekutieli multiple comparison correction).

The next experiment has as its system mouse cortical neurons. The experiment in a line: Morphological integrity evaluation, NMDA 8 μM (MAP2 neurite length and branching). The following applies: 3 h pre-treatment, NMDA 8 μM 24 h; Z>0.5 criteria. It is filed as cell-based. The procedure: Apart of viability/metabolic readout in NMDA-mediated neurotoxicity assay, a neuronal structural integrity was evaluated by MAP2 staining. Mouse cortical neurons (14 DIV) cultured in MW96 plates were fixed with 4% paraformaldehyde (PFA). Fixed cells were incubated with blocking solution (PBS 1×, donkey serum 5%, Triton 0.1%) for 1-hour, primary antibody (rabbit α-MAP2, 1:250, Millipore) was applied in the same solution overnight at +4° C. […] Nuclei were stained with 4′-6-diamidino-2-phenylindole (DAPI, Roche). Microscopy was performed using ArrayScan™XTI (ThermoFisher) imaging platform. 15 images per well were acquired and analyzed by CellProfiler. Total neurite length and the total number of non-trunk branches were analyzed. Total neurite length and the total number of branching were evaluated from 15 images/well, each compound or control was tested in triplicates. The total neurite length and total number of branches were converted to a standardized Z-score using formula: Xij=((Xij−μ)/σ), where xij is the raw measurement of the compound located in well (i, j), and μ and σ are, respectively, the mean and the standard deviation of all measurements of the plate.^31
The morphological integrity of mouse cortical neurons upon chronic 24 h NMDA (8 μM) exposure with compounds pre-treatment (3 h) in preventive regimen was evaluated. Control (basal), DMSO, N-acetylcysteine (NAC) served as positive controls, while staurosporine and NMDA were negative controls.

Counter-ions that a name gives are not always drawn. A value given as a limit tells only on which side of the number the result lay.

In the case of `FC(F)(F)c1ccc(CNc2ccc(Cc3c[nH]c4ncc(Cl)cc34)cn2)cn1` [PLX-3397], the “CG4 differentiation compared with 9cis-RA positive control” value in experiment [1] is “promoting differentiation significantly higher than 9cis-RA positive control”. The fold induction at 1 µM in the experiment on rat primary OPC cultures was greater than 1.6. `CNC(=O)c1cccc2cc(Oc3ccnc4cc(OCC5(N)CC5)c(OC)cc34)ccc12` [LUCITANIB]: in experiment [1], the “CG4 differentiation compared with 9cis-RA positive control” value is recorded as “promoting differentiation significantly higher than 9cis-RA positive control”. The fold induction at 1 µM with rat primary OPC cultures was greater than 1.6. On to `CC1(C)O[C@@H]2C[C@H]3[C@@H]4C[C@H](F)C5=CC(=O)C=C[C@]5(C)[C@@]4(F)[C@@H](O)C[C@]3(C)[C@]2(C(=O)CO)O1` [Fluocinolone acetonide, Fluocinolone Acetonide], for which the “neuroprotection of viability/metabolic activity against NMDA” value in experiment [2] is listed as “hit compounds”.

For the molecule `Cn1c(=O)c(Oc2ccc(F)cc2F)cc2cnc(NC(CCO)CCO)nc21` [Pamapimod], the “neuroprotection of viability/metabolic activity against NMDA” value in experiment [2] is on record as “hit compounds”.

Turning to `CN1[C@@H]2CC[C@H]1C[C@@H](OC(c1ccccc1)c1ccccc1)C2` [BENZATROPINE], in experiment [1], the “CG4 differentiation, fold increase relative to control” value was “over 1.5 fold” and the “CG4 differentiation compared with 9cis-RA positive control” value is “promoting differentiation significantly higher than 9cis-RA positive control”. Further, the fold induction at 1 µM with rat primary OPC cultures is greater than 1.6. As for `N[C@@H](CO)C(=O)O` [L-Serine], in experiment [2], the “neuroprotection of viability/metabolic activity against NMDA” value is reported as “hit compounds”. On to `C[C@H](Nc1ncnc2[nH]cnc12)c1cc2ccc(F)cc2nc1-c1ccccn1` [AMG-319], for which the “neuroprotection of viability/metabolic activity against NMDA” value in experiment [2] is listed as “hit compounds”. With `CN(C(=O)/C=C/c1ccoc1)[C@@H]1CC[C@@]2(O)[C@H]3Cc4ccc(O)c5c4[C@@]2(CCN3CC2CC2)[C@H]1O5` [Nalfurafine hydrochloride], the “neuroprotection of viability/metabolic activity against NMDA” value in experiment [2] is on record as “hit compounds”. On to `CC(=O)Nc1cccc2c1c(Sc1ccc(Cl)cc1)c(C)n2CC(=O)O` [AZD1981], for which the “neuroprotection of viability/metabolic activity against NMDA” value in experiment [2] was “hit compounds”. With `CC(C)(C)c1cc(NC(=O)Nc2ccc(-c3cn4c(n3)sc3cc(OCCN5CCOCC5)ccc34)cc2)no1` [Quizartinib], the “CG4 differentiation compared with 9cis-RA positive control” value in experiment [1] was “promoting differentiation significantly higher than 9cis-RA positive control”. The fold induction at 1 µM in the experiment on rat primary OPC cultures is greater than 1.6.

For the molecule `NC(=O)[C@@H]1CC[C@H](c2ccc(OCc3ccccc3F)cc2)N1` [Raxatrigine], the “neuroprotection of viability/metabolic activity against NMDA” value in experiment [2] is given as “hit compounds”. In the experiment with mouse cortical neurons, the “preservation of neurite length and network integrity (branching)” value (“preservation” below) was “preserved both neurite length and the network integrity (branching)”. Regarding `COCCNCc1ccc(-c2cc3nccc(Oc4ccc(NC(=S)NC(=O)Cc5ccc(F)cc5)cc4F)c3s2)nc1` [MGCD-265], the fold induction at 1 µM in the experiment with rat primary OPC cultures is greater than 1.6.

In the case of `Cc1[nH]c(/C=C2\C(=O)Nc3ccc(F)cc32)c(C)c1C(=O)NC[C@H](O)CN1CCOCC1` [SU14813], in the experiment on rat primary OPC cultures, the fold induction at 1 µM was greater than 1.6. For `Nc1ncnc2nc[nH]c12` [Adenine], the “neuroprotection of viability/metabolic activity against NMDA” value in experiment [2] is given as “hit compounds”. Further, the “preservation” value with mouse cortical neurons is “preserved both neurite length and the network integrity (branching)”.

With `CCOC(=O)c1cnc2c(cnn2CC)c1NN=C(C)C` [Etazolate], in the experiment with rat primary OPC cultures, the fold induction at 1 µM is greater than 1.6. On to `O=C(Nc1ccccc1Br)N[C@@H]1CCN(c2ccc(C(F)(F)F)cn2)C1` [SB-705498], for which the “neuroprotection of viability/metabolic activity against NMDA” value in experiment [2] is on record as “hit compounds”. On to `COc1cc(OC)nc(O[C@H](C(=O)O)C(OC)(c2ccccc2)c2ccccc2)n1`, for which the “CG4 differentiation compared with 9cis-RA positive control” value in experiment [1] is given as “promoting differentiation significantly higher than 9cis-RA positive control”. Moreover, the fold induction at 1 µM in the experiment on rat primary OPC cultures is greater than 1.6.

In the case of `CN1[C@@H]2CC[C@H]1C[C@@H](OC(=O)[C@H](CO)c1ccccc1)C2` [Hyoscyamine], the “neuroprotection of viability/metabolic activity against NMDA” value in experiment [2] is on record as “hit compounds”. Moreover, the “preservation” value in the experiment with mouse cortical neurons was “preserved both neurite length and the network integrity (branching)”.
